# Laboratory results as given in the METLIN SMRT retention time set (Domingo-Almenara et al. 2019).
# Assay: gradient 5% acetonitrile 3 min, to 50% in 2 min, to 85% in 15 min, held 3 min, 100 µL/min
# Conditions: column: Zorbax Extend-C18 2.1 x 50 mm; eluents: water / acetonitrile, 0.1% formic acid
# Procedure, shortened: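 Pure standards were analyzed in mixtures of ~100 molecules using HPLC coupled to a quadrupole time-of-flight mass spectrometer, in both positive and negative ionization mode. Separation used a Zorbax Extend-C18 column (2.1 × 50 mm, 1.8 μm) at 100 μL/min, with water and acetonitrile each containing 0.1% formic acid. Dead and dwell volumes were 40 μL and 900 μL, and data were collected over 3 months. Retention time was read from computationally picked adduct peaks, each inspected manually.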
row,Structure (SMILES),RP-LC retention time [s]
1,O=C(NCc1cccnc1)c1nc(CCS(=O)(=O)c2ccccc2)no1,593
2,Cc1cc(C)n(-c2cc(SCC(=O)NCc3ccco3)ncn2)n1,779
3,O=C(NCCCN1CCCCC1)c1ccc2c(c1)NC(=O)C1CCCCN21 (centres undefined),600
4,O=C(Nc1onc2c1CSC2)c1cccc(-n2cnnn2)c1,647
5,CCOC(=O)c1c(S(=O)(=O)N2CC=C(c3ccccc3)CC2)n[nH]c1CC,927
6,CCC(CC)C(=O)Nc1nc(-c2ccc(Cl)cc2)cs1,1150
7,O=C1CCN([C@@H]2O[C@H](CO)[C@@H](O)[C@H]2O)C(=O)N1,933
8,CCOC(=O)c1c(C)[nH]c(C(=O)N2CCCC(C(=O)NC3CCCC3)C2)c1C (centres undefined),759
9,COc1cccc(CNS(=O)(=O)c2cc(-c3cc(C(F)(F)F)on3)sc2C)c1,1120
10,Cn1c(=O)c2nc(S(=O)(=O)CCC(=O)Nc3ccc(Cl)cc3F)n(C)c2n(C)c1=O,781
11,COc1cc(NC(=O)COc2cc(C(F)(F)F)c3c(C)nn(C)c3n2)cc(OC)c1,1030
12,Cc1ccc(F)cc1NS(=O)(=O)c1cc(-c2[nH]ncc2C(=O)N(C)C)oc1C,706
13,Cc1nc(-c2cn(C)c3ncccc23)sc1C(=O)Nc1cc(F)cc(F)c1,1050
14,CCOc1ccccc1NC(=O)Cn1nc2cc(C)nc(-c3ccccc3)n2c1=O,838
15,O=C(NC1CC1)C1CCCN(c2ccc3cc(S(=O)(=O)N4CCCCC4)ccc3n2)C1 (centres undefined),683
16,Cc1nnc(C2CCCN(C(=O)c3ccccc3Cl)C2)s1 (centres undefined),652
17,Cc1ccc(S(=O)(=O)NC(C)c2nc(-c3ccc(-c4csc(C)n4)cc3)no2)cc1 (centres undefined),1020
18,COc1cccc(-c2noc(Cn3c(=O)n(-c4ccc(F)cc4)c(=O)c4sccc43)n2)c1,952
19,CCOc1ccccc1-c1nc(-c2cn(-c3ccc(F)cc3)nn2)no1,1090
20,CCc1nnc2ccc(NC(C)C)nn12,718
21,COCCN1C(=O)c2ccccc2C(C(=O)NCc2ccco2)C1c1ccc(F)cc1 (centres undefined),822
22,CCc1cccc(N2C=C(C(=O)N3CCOCC3)S(=O)(=O)c3ccc(F)cc32)c1,858
23,CC1(C(=O)NCc2ccc(F)cc2)CCCN(S(=O)(=O)c2ccc(F)cc2F)C1 (centres undefined),963
24,CCCn1cc(C(=O)NCc2ccc3c(c2)OCO3)c2cccnc21,758
25,CCc1nn2c(CNS(=O)(=O)Cc3ccc(Cl)cc3)c(-c3ccccc3)nc2s1,1020

row,Structure (SMILES),RP-LC retention time [s]
1,O=C(Nc1ccc(N2CCOCC2)cc1)c1ccc2nc(-c3ccccc3)cn2c1,646
2,CC(C)c1ccc(Oc2nccn3c(=O)n(CC(=O)Nc4ccc(Br)cc4)nc23)cc1,1090
3,CC(=O)c1ccc(N2CCN(C(=O)c3csc(-c4ccc(C)n4C)n3)CC2)cc1,955
4,COCCC(=O)N1CC(F)(F)C[C@H]1c1nc(COC)no1,649
5,Cc1ncc2c(n1)C[C@@H]1CC[C@H]2N1C(=O)Cc1ccccc1,648
6,O=C(c1ccc(Br)o1)N1CCN(Cc2nnnn2-c2ccc(F)cc2)CC1,776
7,CNC(=O)Cc1ccc(NC(=O)NC2CCCCC2)cc1,642
8,CC(C)(Cc1c[nH]c2ccc(Cl)cc12)NCCOc1ccccc1OCC1CC1,953
9,CC1=C(c2ccccc2)S(=O)(=O)N=C1N1CCCN(C(=O)c2ccc(F)c(F)c2)CC1,900
10,COc1cccc(S(=O)(=O)N2CCC3(CC2)N(C2CCCC2)C(=O)CS3=O)c1 (centres undefined),780
11,CCOc1ccc(-c2noc(CN3C(=O)COc4ccccc43)n2)cc1,1030
12,CCN1CCCn2cc(S(=O)(=O)N3CCOCC3)cc2C1=O,614
13,O=C(c1ccc2ncccc2c1)N1CCN(c2cc(-c3cccs3)[nH]n2)CC1,641
14,Cc1ccc(CNC(=O)C2(C)CN(S(C)(=O)=O)CC(=O)N2Cc2ccc(C)cc2)cc1 (centres undefined),899
15,Cc1ccc(-n2nc(SC(C)C(=O)NC3CC3)ccc2=O)cc1Cl (centres undefined),750
16,O=C(CN1CCN(c2ccccn2)CC1)Nc1nccs1,555
17,Cc1nc(-c2ccc(C(=O)N3CCC(C)CC3)cc2)cs1,904
18,Cn1c(=O)c2cc(C(=O)Nc3cccc(Cl)c3)cnc2n(-c2ccccc2)c1=O,980
19,COc1cccc(CNC2=NCCNC23CCN(S(=O)(=O)c2cc(C)c(C)cc2C)CC3)c1,836
20,CC(=O)c1ccc(S(=O)(=O)NCCC2CCN(C(=O)c3ccccc3)CC2)cc1,773
21,CCn1ncc(Cl)c1C(=O)N1CCCC1c1c(C)noc1C (centres undefined),734
22,COc1ccc(S(=O)(=O)N2CCC(c3cnn(-c4ccc(C)cc4)c3)CC2)cc1,1110
23,CCc1ccc(CNC(=O)CCC(=O)N2CCCn3nc(C)cc32)cc1,666
24,O=C(COc1ccc(Cl)cc1Cl)Nc1nnc(-c2ccncc2)o1,669

# Now from value to compound:
row,RP-LC retention time [s],Structure (SMILES)
1,1320,COc1ccccc1N1CCN(c2ncccc2-c2nc(-c3ccc(Cl)cc3)no2)CC1
2,822,O=C(Cc1cccs1)N1CCN(c2ccc(=O)n(-c3cccc(Cl)c3)n2)CC1
3,1010,O=C(NC1(c2nc(-c3cccnc3)no2)CCCCC1)c1ccc(Br)cc1
4,626,CCNc1nc(C)cc(N2CCN(C(=O)Nc3cc(OC)ccc3OC)CC2)n1
5,820,Cc1nn(CC(=O)N(C)Cc2ccco2)c(=O)c2c(C)n(-c3ccccc3)nc12
6,861,Cc1oc(C2CCN(C(=O)Nc3ccc4c(c3)CCC4)CC2)nc1C(=O)N1CCCC1
7,788,COc1ccc(S(=O)(=O)N2CC(F)(F)C[C@H]2c2nnc(C)o2)cc1
8,584,COCC(=O)N1CCC(Oc2nccnc2N2CCOCC2)C1 (centres undefined)
9,704,CC1Oc2ccc(-c3csc(NC(=O)c4cccnc4)n3)cc2NC1=O (centres undefined)
10,612,Cc1cc(Cl)ccc1NC(=O)N1CCC2(CC1)c1nccn1CCN2C
11,710,CCOc1ccc(NC(=O)CCC2CCN(c3cc(NC4CC4)ncn3)CC2)cc1
12,960,Cc1nn(C)c2nc(OC(C)C(=O)NCc3ccc(F)cc3)cc(C(F)(F)F)c12 (centres undefined)
13,1020,CCOC(=O)Cc1c(C)nc2cc(-c3ccccc3)nn2c1C
14,807,CC(C)NC(=O)c1ccc(OCC2CCCN2C(=O)Cc2cccs2)cc1 (centres undefined)
15,926,O=C(CCN1C(=O)C2C3C=CC(C3)C2C1=O)Nc1nc(-c2ccccc2)cs1 (centres undefined)
16,640,O=C(Nc1cccc(-c2nnc3n2CCCC3)c1)c1ccco1
17,1040,COc1ccc(NC(=O)Cn2cccc2-c2nc(-c3ccc4c(c3)OCO4)no2)c(OC)c1
18,741,O=C(CCC1CCN(S(=O)(=O)c2ccccc2)CC1)N1CCOCC1
19,794,Oc1cccc(-c2nc3cnc(Br)cn3c2Nc2ccc3c(c2)OCCO3)c1
20,1070,Cc1oc2ccn(Cc3ccccc3F)c(=O)c2c1C(=O)NCc1ccccc1

row,RP-LC retention time [s],Structure (SMILES)
1,736,COc1cc(O)ccc1-c1nc2ccc(Br)cn2c1Nc1ccccc1C
2,736,CC(=O)Nc1cccc(C(=O)NCCc2c[nH]c3ccc(Cl)cc23)c1
3,1010,COc1ccc(NC(=O)N(C)CCc2noc(COc3ccc(Cl)cc3)n2)cc1
4,897,O=C(Cc1ccc(F)cc1)Nc1ccccc1NC(=O)c1cccc(Cl)c1
5,793,COc1ccc(OCc2noc(CNC(=O)c3ccccc3Cl)n2)cc1
6,936,CCN1C(=O)COc2cc(-c3noc(C(=O)NC4CCCC4)n3)ccc21
7,667,CC(C)NC(=O)c1ccc2cnn(C)c2c1
8,624,CCn1nccc1C(=O)N1CC(N(C2CCOCC2)S(C)(=O)=O)C1
9,927,CCCn1c(=O)c(C)nc2cc(-c3noc(C4CC(=O)N(c5ccc(C)cc5)C4)n3)ccc21 (centres undefined)
10,1050,CCCN(CC1CCOC1)S(=O)(=O)c1ccc(C)c(Cl)c1 (centres undefined)
11,838,C=CCNC(=O)CN1C(=O)C2CCCCN2c2ccc(C(=O)N3CCCC3)cc21 (centres undefined)
12,973,CC(C)CCNC(=O)C1(C)CN(S(=O)(=O)c2ccccc2)CC(=O)N1Cc1ccccc1 (centres undefined)
13,617,CC(=O)Nc1cccc(C2=NN(C(C)=O)C(c3ccc4nccnc4c3)C2)c1 (centres undefined)
14,794,CN(C)c1cccc(-c2nc(-c3ccc4c(c3)ncn4CCC(=O)N3CCCC3)no2)c1
15,675,COCC(=O)NC1CCC12CCN(C(=O)CC(C)C)CC2 (centres undefined)
16,1040,CC(=O)c1ccc(NC(=O)Cn2c(-c3ccc(Cl)cc3)nc(C)cc2=O)cc1
17,879,COC(=O)C1=CN(c2cccc(Cl)c2)c2ccccc2S1(=O)=O
18,868,COc1ccc2[nH]cc(CCNC(=O)c3cn(-c4ccc(F)cc4)nn3)c2c1
19,568,COc1nc(N)nc2c1ncn2[C@@H]1O[C@H](CO)[C@@H](O)[C@@H]1O
20,772,Cc1ccc(C)c(S(=O)(=O)N2CCC3(CC2)NCCN=C3NCc2ccc(F)cc2)c1
